{"source": "patent US20130190275A1", "about": "“COMBINED THERAPIES OF ANTIPSYCHOTIC DRUGS AND TETRACYCLINES IN THE TREATMENT OF PSYCHIATRIC DISORDERS” (MOR RESEARCH APPLICATIONS LTD., priority 2006, published 2013)", "format_in_all_cases": "in vivo, human", "key": {"[1]": {"test_system": "patients who experience first psychotic episode", "assay": "CANTAB Stockings of Cambridge (SOC), adjuvant study", "details": "atypical antipsychotic drug+minocycline 200 mg/day vs +placebo; p=0.001", "experimental": "(§1) The study was carried out in patients who experience first psychotic episode, and has followed the patient for a total duration of 6 months. As the study examines Minocycline as an adjuvant drug, the sample includes patients receiving one of the following atypical anti-psychotic drugs: Risperdal, Zyprexa, Geodon, Seroquel, and Leponex. […] In addition, the subjects were assessed by a battery of computerized neuropsychological tests (CANTAB—Cambridge Neuropsychological Test Automated Battery), measuring attention, memory, and planning. Executive function was tested by two tasks of the CANTAB: planning was tested by a computerized modification of the Tower of London, and working memory by a spatial working memory task. Minocycline was given as an add-on therapy. […] Clinical status was evaluated by the aforementioned scales at the onset of the study, every week for the first 6 weeks, and then once a month for the rest of the study period. Cognitive capabilities were assessed by the neuropsychological battery of tests according to the following schedule: upon initiation of the study (referred to as visit 1 in FIGS. 5-8), 3 months (referred to as visit 2 in FIGS. 5-8), and 6 months (referred to as visit 3 in FIGS. 5-8) after the start of the study. […]"}, "[2]": {"test_system": "patients who experience first psychotic episode", "assay": "SANS (Scale for the Assessment of Negative Symptoms), adjuvant study", "details": "atypical antipsychotic drug+minocycline 200 mg/day vs +placebo; group x time p<0.01", "experimental": "(§2) The study was carried out in patients who experience first psychotic episode, and has followed the patient for a total duration of 6 months. As the study examines Minocycline as an adjuvant drug, the sample includes patients receiving one of the following atypical anti-psychotic drugs: Risperdal, Zyprexa, Geodon, Seroquel, and Leponex. […] Initial evaluation included the following clinical measures: • SCID (for reliability of diagnosis) • CGI (Clinical Global Impression) • PANSS (Positive and Negative Syndrome Scale for Schizophrenia) • SANS (Scale for the Assessment of Negative Symptoms) • Calgary Depression Scale for Schizophrenia • GAF • GRAF • Insight and Treatment Attitudes Questionnaire • QLS (Quality of Life Scale) • Multinomah Community Ability Scale • Extrapyramidal Side Effects Scale. Minocycline was given as an add-on therapy. […] Clinical status was evaluated by the aforementioned scales at the onset of the study, every week for the first 6 weeks, and then once a month for the rest of the study period. Cognitive capabilities were assessed by the neuropsychological battery of tests according to the following schedule: upon initiation of the study (referred to as visit 1 in FIGS. 5-8), 3 months (referred to as visit 2 in FIGS. 5-8), and 6 months (referred to as visit 3 in FIGS. 5-8) after the start of the study. […]"}, "[3]": {"test_system": "patients who experience first psychotic episode", "assay": "CANTAB Intra-extra dimensional set-shifts (IED), adjuvant study", "details": "atypical antipsychotic drug+minocycline 200 mg/day vs +placebo; time x group p<0.0001", "experimental": "as §1, with “planning.” for “planning. Executive function was tested by two tasks of the CANTAB: planning was tested by a computerized modification of the Tower of London, and working memory by a spatial working memory task.”, “therapy. Prior to randomization into minocycline/placebo adjuvant treatment, a preliminary (lead-in phase) screening phase of placebo treatment was undertaken: Placebo was given as an adjuvant to all patients for two weeks. […] Randomization was then carried out by the principal investigator.” for “therapy.”"}, "[4]": {"test_system": "patients who experience first psychotic episode", "assay": "GRAF score, adjuvant study", "details": "atypical antipsychotic drug+minocycline 200 mg/day vs +placebo; group x time p<0.05", "experimental": "as §2"}}, "data": [{"smiles": "CN(C)c1ccc(O)c2c1C[C@H]1C[C@H]3[C@H](N(C)C)C(O)=C(C(N)=O)C(=O)[C@@]3(O)C(O)=C1C2=O", "note": "[minocycline]", "values": [{"measurement": "SOC number of problems solved in minimum moves", "setting": "[1]", "result": "improved significantly more than the placebo group"}, {"measurement": "total SANS score", "setting": "[2]", "result": "greater improvement than the placebo group"}, {"measurement": "IED measures (number of stages completed, total errors adjusted, Pre-ED errors, EDS errors)", "setting": "[3]", "result": "improved significantly more than the placebo group on all the IED measures except for the Pre-ED errors measure"}, {"measurement": "GRAF score", "setting": "[4]", "result": "greater improvement of the GRAF score"}]}]}
